Patent publication US6270780A, “Cosmetic compositions containing resveratrol” (Chesebrough-Pond's USA Co., division of Conopco, priority 1998, dated 2001)
Read-outs that look alike come from different tables or passages of the source.

Tested on: Transglutaminase (TG-1)
Experiment: ELISA based TG-1 assay, differentiation of keratinocytes
Format: cell-based, human
Source text: Methodology for Transglutaminase Measurement
During the process of terminal differentiation in the epidermis, a 15 nm thick layer of protein, known as the cornified envelope (CE) is formed on the inner surface of the cell periphery. The CE is composed of numerous distinct proteins which have been cross-linked together by the formation of N-((-glutamyl) lysine isodipeptide bonds catalyzed by the action of at least two different transglutaminases expressed in the epidermis. Transglutaminase (TG-1) is expressed in abundance in the differentiated layers of the epidermis, especially the granular layer, but is absent in the undifferentiated basal epidermis. Thus, TG-1 is a useful marker of epidermal keratinocyte differentiation with high TG-1 levels indicating a more differentiated state. An ELISA based TG-1 assay, using a TG-1 antibody, was used to assess the state of differentiation of the cultured keratinocytes in the examples that follow.
The level of TG-1 was measured as follows. Keratinocytes were obtained as described in Example 2. For the experiment, about 30,000 cells were plated into each well of 6 well plates and grown for five days, until the cells reach about 20-30% confluence. 2 ml/well of fresh KGM were added daily with 2 μl of 2-50 mM resveratrol in DMSO for 3 days. Control wells also received 2 μl of DMSO. After 3 days of treatment, cells were washed twice with PBS and placed in freezer for 2 hours. Cells were then thawed for 2 hours. DNA content of the cells were quantitated by using the DNA binding flurophore, bis-benzimidazole (Hoechst 33258) and measuring the specific fluorescence of the DNA-bound flurophore at 450 nm (excitation at 360 nm).
TG-1 levels of the cells in the wells were determined using the TG-1 specific monoclonal antibody (BC1) (first antibody) (obtained from Amersham Life Sciences) and using a peroxidase labeled rabbit antimouse IgG fragment (second antibody). The plates were blocked by 5% nonfat milk in TBS (Tris buffered saline, 0.01 M Tris, 0.150 M sodium chloride, pH 8.0) for one hour followed by 2 hour incubation with the first antibody (1:4,000 fold dilution) in 1% milk/TBS at room temperature. After rinsing the plates three times with 1% milk/TBS containing 0.05% Tween 20, the plates were incubated with 1:4000 dilution of the second antibody at room temperature for two hours. The plates were rinsed three times with 1% milk/TBS/Tween and three times with TBS. Color was developed by incubation with o-phenylene diamine and hydrogen peroxide. The absorbance was read at 492 nm on a Ultrospec 3000 spectrophotometer (Pharmacia Biotech) and TG-1 levels were calculated as Abs/DNA fluorescence. The mean±standard deviation of at least 3 separate wells were used for calculation and statistical analysis of the data. Values were expressed as absorbance for TG-1 per arbitrary unit of DNA fluorescence of triplicate wells±standard deviation. Results were also expressed as % of control.

Compound: Oc1ccc(/C=C/c2cc(O)cc(O)c2)cc1 [Resveratrol, 3,4'5-stilbenetriol]
- transglutaminase expression of keratinocytes vs control (Experiment 1, 10 μM): not significantly different from control
- TG-1 levels/μg DNA (Experiment 1, 10 μM, 3 days): 8.49 ± 1.77 /μg DNA
- TG-1 levels/μg DNA (Experiment 1, 25 μM, 3 days): 10.92 ± 2.29 /μg DNA
- TG-1 levels/μg DNA (Experiment 1, 50 μM, 3 days): 22.2 ± 1.50 /μg DNA
- TG-1 levels/μg DNA (Experiment 2, 2 μM, 3 days): 3.42 ± 0.42 /μg DNA
- TG-1 levels/μg DNA (Experiment 2, 5 μM, 3 days): 3.51 ± 0.41 /μg DNA
- TG-1 levels/μg DNA (Experiment 2, 10 μM, 3 days): 3.61 ± 0.17 /μg DNA
- TG-1 levels/μg DNA (Experiment 2, 25 μM, 3 days): 4.69 ± 0.21 /μg DNA
- TG-1 levels/μg DNA (Experiment 2, 50 μM, 3 days): 4.65 ± 0.46 /μg DNA
- keratinocyte differentiation (Experiment 2, all concentrations of 2 μM and higher): significantly increased keratinocyte differentiation
- activity at 10 µM (Homo sapiens, Keratinocyte, 72 h, Experiment 1, 10 μM, 3 days, read-out: TG-1 levels, % of control): 126%
- activity at 25 µM (Homo sapiens, Keratinocyte, 72 h, Experiment 1, 25 μM, 3 days, read-out: TG-1 levels, % of control): 162%
- activity at 50 µM (Homo sapiens, Keratinocyte, 72 h, Experiment 1, 50 μM, 3 days, read-out: TG-1 levels, % of control): 329%
- activity at 2 µM (Homo sapiens, Keratinocyte, 72 h, Experiment 2, 2 μM, 3 days, read-out: TG-1 levels, % of control): 179%
- activity at 5 µM (Homo sapiens, Keratinocyte, 72 h, Experiment 2, 5 μM, 3 days, read-out: TG-1 levels, % of control): 184%
- activity at 10 µM (Homo sapiens, Keratinocyte, 72 h, Experiment 2, 10 μM, 3 days, read-out: TG-1 levels, % of control): 189%
- activity at 25 µM (Homo sapiens, Keratinocyte, 72 h, Experiment 2, 25 μM, 3 days, read-out: TG-1 levels, % of control): 246%
- activity at 50 µM (Homo sapiens, Keratinocyte, 72 h, Experiment 2, 50 μM, 3 days, read-out: TG-1 levels, % of control): 243%
- transglutaminase expression of keratinocytes (all other concentrations): significantly increased transglutaminase expression of keratinocytes
